Assay results reported in patent US10125138B2, “Triazolotriazinone derivatives having activity a s herbicides” (Syngenta Participations AG, priority 2015, dated 2018).

Columns and labels:
Assay type in all cases: in vivo
Setaria faberi (SETFA) [1] = experiment: Post-emergence glasshouse herbicide test, Setaria faberi; settings: evaluated after 13 days, five point scale
Method: (§1) Seeds of a variety of test species are sown in standard soil in pots (Lolium perenne (LOLPE), Solanum nigrum (SOLNI), Amaranthus retoflexus (AMARE), Setaria faberi (SETFA), Echinochloa crus-galli (ECHCG), Ipomoea hederacea (IPOHE)). After cultivation for one day (pre-emergence) or after 8 days cultivation (post-emergence) under controlled conditions in a glasshouse (at 24/16° C., day/night; 14 hours light; 65% humidity), the plants are sprayed with an aqueous spray solution derived from the formulation of the technical active ingredient in acetone/water (50:50) solution containing 0.5% Tween 20 (polyoxyethelyene sorbitan monolaurate, CAS RN 9005-64-5). […] The test plants are then grown in a glasshouse under controlled conditions in a glasshouse (at 24/16° C., day/night; 14 hours light; 65% humidity) and watered twice daily. After 13 days for pre and post-emergence, the test is evaluated for the percentage damage caused to the plant. The biological activities are shown in the following table on a five point scale (5=80-100%; 4=60-79%; 3=40-59%; 2=20-39%; 1=0-19%).

[2] = tested on: Ipomoea hederacea (IPOHE); experiment: Pre-emergence glasshouse herbicide test, Ipomoea hederacea; settings: evaluated after 13 days, five point scale
Method: as §1

Setaria faberi (SETFA) [3] = experiment: Pre-emergence glasshouse herbicide test, Setaria faberi; settings: evaluated after 13 days, five point scale
Method: as §1

[4] = tested on: Ipomoea hederacea (IPOHE); experiment: Post-emergence glasshouse herbicide test, Ipomoea hederacea; settings: evaluated after 13 days, five point scale
Method: as §1

[5] = tested on: Amaranthus retoflexus (AMARE); experiment: Pre-emergence glasshouse herbicide test, Amaranthus retoflexus; settings: evaluated after 13 days, five point scale
Method: as §1

[6] = tested on: Echinochloa crus-galli (ECHCG); experiment: Post-emergence glasshouse herbicide test, Echinochloa crus-galli; settings: evaluated after 13 days, five point scale
Method: as §1

[7] = tested on: Amaranthus retoflexus (AMARE); experiment: Post-emergence glasshouse herbicide test, Amaranthus retoflexus; settings: evaluated after 13 days, five point scale
Method: as §1

[8] = tested on: Echinochloa crus-galli (ECHCG); experiment: Pre-emergence glasshouse herbicide test, Echinochloa crus-galli; settings: evaluated after 13 days, five point scale
Method: as §1

Lolium perenne (LOLPE) [9] = experiment: Post-emergence glasshouse herbicide test, Lolium perenne; settings: applied at 250 g/ha, evaluated after 13 days, five point scale
Method: as §1

Lolium perenne (LOLPE) [10] = experiment: Pre-emergence glasshouse herbicide test, Lolium perenne; settings: applied at 250 g/ha, evaluated after 13 days, five point scale
Method: as §1

CCn1nnnc1NC(=O)c1nn2cnn(-c3cccc(C)c3)c2nc1=O [Compound 1.046]
percentage damage caused to the plant, POST Application SETFA (Setaria faberi (SETFA) [1]; 1000 g/h): 5 (5=80-100%)
percentage damage caused to the plant, PRE Application IPOHE ([2]; 1000 g/h): 5 (5=80-100%)
percentage damage caused to the plant, PRE Application SETFA (Setaria faberi (SETFA) [3]; 1000 g/h): 5 (5=80-100%)
percentage damage caused to the plant, POST Application IPOHE ([4]; 1000 g/h): 5 (5=80-100%)
percentage damage caused to the plant, PRE Application AMARE ([5]; 1000 g/h): 5 (5=80-100%)
percentage damage caused to the plant, POST Application ECHCG ([6]; 1000 g/h): 5 (5=80-100%)
percentage damage caused to the plant, POST Application AMARE ([7]; 1000 g/h): 5 (5=80-100%)
percentage damage caused to the plant, PRE Application ECHCG ([8]; 1000 g/h): 5 (5=80-100%)

O=C1CCCC(=O)C1C(=O)c1nn2cnn(-c3ccccc3)c2nc1=O [Compound 4.001]
percentage damage caused to the plant, POST Application SETFA (Setaria faberi (SETFA) [1]; applied at 250 g/ha): 5 (5=80-100%)
percentage damage caused to the plant, POST Application LOLPE (Lolium perenne (LOLPE) [9]): 1 (1=0-19%)
percentage damage caused to the plant, PRE Application IPOHE ([2]; applied at 250 g/ha): 1 (1=0-19%)
percentage damage caused to the plant, PRE Application SETFA (Setaria faberi (SETFA) [3]; applied at 250 g/ha): 1 (1=0-19%)
percentage damage caused to the plant, POST Application IPOHE ([4]; applied at 250 g/ha): 5 (5=80-100%)
percentage damage caused to the plant, PRE Application AMARE ([5]; applied at 250 g/ha): 5 (5=80-100%)
percentage damage caused to the plant, POST Application ECHCG ([6]; applied at 250 g/ha): 5 (5=80-100%)
percentage damage caused to the plant, POST Application AMARE ([7]; applied at 250 g/ha): 5 (5=80-100%)
percentage damage caused to the plant, PRE Application ECHCG ([8]; applied at 250 g/ha): 5 (5=80-100%)
percentage damage caused to the plant, PRE Application LOLPE (Lolium perenne (LOLPE) [10]): 2 (2=20-39%)

O=C1CCCC(=O)C1C(=O)c1nn2cnn(-c3ccc(C(F)(F)F)cc3)c2nc1=O [Compound 4.008]
percentage damage caused to the plant, POST Application SETFA (Setaria faberi (SETFA) [1]; 1000 g/h): 5 (5=80-100%)
percentage damage caused to the plant, PRE Application IPOHE ([2]; 1000 g/h): 5 (5=80-100%)
percentage damage caused to the plant, PRE Application SETFA (Setaria faberi (SETFA) [3]; 1000 g/h): 5 (5=80-100%)
percentage damage caused to the plant, POST Application IPOHE ([4]; 1000 g/h): 5 (5=80-100%)
percentage damage caused to the plant, PRE Application AMARE ([5]; 1000 g/h): 5 (5=80-100%)
percentage damage caused to the plant, POST Application ECHCG ([6]; 1000 g/h): 5 (5=80-100%)
percentage damage caused to the plant, POST Application AMARE ([7]; 1000 g/h): 4 (4=60-79%)
percentage damage caused to the plant, PRE Application ECHCG ([8]; 1000 g/h): 5 (5=80-100%)

O=C1CCCC(=O)C1C(=O)c1nn2cnn(-c3cccc(Cl)c3)c2nc1=O [Compound 4.009]
percentage damage caused to the plant, POST Application SETFA (Setaria faberi (SETFA) [1]; 1000 g/h): 5 (5=80-100%)
percentage damage caused to the plant, PRE Application IPOHE ([2]; 1000 g/h): 5 (5=80-100%)
percentage damage caused to the plant, PRE Application SETFA (Setaria faberi (SETFA) [3]; 1000 g/h): 5 (5=80-100%)
percentage damage caused to the plant, POST Application IPOHE ([4]; 1000 g/h): 5 (5=80-100%)
percentage damage caused to the plant, PRE Application AMARE ([5]; 1000 g/h): 5 (5=80-100%)
percentage damage caused to the plant, POST Application ECHCG ([6]; 1000 g/h): 5 (5=80-100%)
percentage damage caused to the plant, POST Application AMARE ([7]; 1000 g/h): 5 (5=80-100%)
percentage damage caused to the plant, PRE Application ECHCG ([8]; 1000 g/h): 5 (5=80-100%)

O=C(c1nn2cnn(-c3ccc(C(F)(F)F)cc3)c2nc1=O)C1C(=O)C2CCC(C2)C1=O (centres unmarked) [Compound 5.008]
percentage damage caused to the plant, POST Application SETFA (Setaria faberi (SETFA) [1]; 1000 g/h): 5 (5=80-100%)
percentage damage caused to the plant, PRE Application IPOHE ([2]; 1000 g/h): 5 (5=80-100%)
percentage damage caused to the plant, PRE Application SETFA (Setaria faberi (SETFA) [3]; 1000 g/h): 5 (5=80-100%)
percentage damage caused to the plant, POST Application IPOHE ([4]; 1000 g/h): 5 (5=80-100%)
percentage damage caused to the plant, PRE Application AMARE ([5]; 1000 g/h): 5 (5=80-100%)
percentage damage caused to the plant, POST Application ECHCG ([6]; 1000 g/h): 5 (5=80-100%)
percentage damage caused to the plant, POST Application AMARE ([7]; 1000 g/h): 5 (5=80-100%)
percentage damage caused to the plant, PRE Application ECHCG ([8]; 1000 g/h): 5 (5=80-100%)

Cc1cccc(-n2ncn3nc(C(=O)C4C(=O)CC(C)CC4=O)c(=O)nc23)c1 (centres unmarked) [Compound 6.001]
percentage damage caused to the plant, POST Application SETFA (Setaria faberi (SETFA) [1]; 1000 g/h): 5 (5=80-100%)
percentage damage caused to the plant, PRE Application IPOHE ([2]; 1000 g/h): 5 (5=80-100%)
percentage damage caused to the plant, PRE Application SETFA (Setaria faberi (SETFA) [3]; 1000 g/h): 4 (4=60-79%)
percentage damage caused to the plant, POST Application IPOHE ([4]; 1000 g/h): 5 (5=80-100%)
percentage damage caused to the plant, PRE Application AMARE ([5]; 1000 g/h): 5 (5=80-100%)
percentage damage caused to the plant, POST Application ECHCG ([6]; 1000 g/h): 5 (5=80-100%)
percentage damage caused to the plant, POST Application AMARE ([7]; 1000 g/h): 5 (5=80-100%)
percentage damage caused to the plant, PRE Application ECHCG ([8]; 1000 g/h): 5 (5=80-100%)
